Our source for the IC50 values is patent US11021467B2, “Phosphatidylinositol 3-kinase inhibitors” (Gilead Sciences, Inc., priority 2014, dated 2021).

Assay in all cases: TR-FRET enzymatic activity assay against PI3K isoforms
Holding throughout (type): biochemical

One test addresses PI3Kβ (Homo sapiens (Human), UniProt P42338). As to conditions: PI3Kβ, TR-FRET, 2×Km ATP, 30 minutes at 25° C. The source says:
(§1) The compounds of formula (I) were characterized for their enzymatic activity against the PI3K isoforms. […] TR-FRET monitored the formation of 3,4,5-inositol triphosphate molecule that competed with fluorescently labeled PIP3 for binding to the GRP-1 pleckstrin homology domain protein.

In another test the target is PI3Kγ (Homo sapiens (Human), UniProt P48736). As to conditions: 2×Km ATP, 30 minutes at 25° C.
Excerpt: as §1

Another test concerns the target PI3Kδ (Homo sapiens (Human), UniProt O00329). As to conditions: 2×Km ATP, 30 minutes at 25° C.
Excerpt: as §1

Chain of PI3Kγ (P48736 whole entry): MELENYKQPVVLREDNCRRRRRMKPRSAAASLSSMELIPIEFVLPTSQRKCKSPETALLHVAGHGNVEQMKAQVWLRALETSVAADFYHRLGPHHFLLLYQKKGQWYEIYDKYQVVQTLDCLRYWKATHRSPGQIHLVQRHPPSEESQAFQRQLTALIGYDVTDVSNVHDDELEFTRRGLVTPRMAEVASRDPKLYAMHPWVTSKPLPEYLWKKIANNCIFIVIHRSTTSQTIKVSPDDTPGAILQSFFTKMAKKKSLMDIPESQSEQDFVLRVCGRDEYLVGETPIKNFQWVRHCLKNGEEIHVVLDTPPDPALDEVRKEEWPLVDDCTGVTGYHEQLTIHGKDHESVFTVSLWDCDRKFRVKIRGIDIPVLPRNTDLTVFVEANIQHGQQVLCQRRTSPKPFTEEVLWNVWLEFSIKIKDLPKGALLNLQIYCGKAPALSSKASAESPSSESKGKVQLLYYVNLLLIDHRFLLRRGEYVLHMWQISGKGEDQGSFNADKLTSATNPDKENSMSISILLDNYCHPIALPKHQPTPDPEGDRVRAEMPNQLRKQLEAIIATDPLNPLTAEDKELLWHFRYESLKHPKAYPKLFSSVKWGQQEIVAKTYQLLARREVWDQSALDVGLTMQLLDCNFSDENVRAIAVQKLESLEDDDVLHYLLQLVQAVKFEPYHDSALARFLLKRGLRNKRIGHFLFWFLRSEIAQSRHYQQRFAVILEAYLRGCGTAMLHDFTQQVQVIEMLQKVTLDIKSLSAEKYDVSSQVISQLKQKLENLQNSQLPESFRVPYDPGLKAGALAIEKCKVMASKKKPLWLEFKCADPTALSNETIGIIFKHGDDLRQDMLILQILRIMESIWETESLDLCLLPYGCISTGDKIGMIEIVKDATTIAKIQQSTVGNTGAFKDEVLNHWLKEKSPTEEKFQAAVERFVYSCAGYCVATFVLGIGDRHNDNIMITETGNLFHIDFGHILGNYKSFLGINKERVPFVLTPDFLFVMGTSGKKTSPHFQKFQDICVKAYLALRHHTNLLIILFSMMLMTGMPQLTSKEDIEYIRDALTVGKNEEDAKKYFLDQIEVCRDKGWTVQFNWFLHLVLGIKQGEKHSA
Chain of PI3Kδ (O00329 whole entry): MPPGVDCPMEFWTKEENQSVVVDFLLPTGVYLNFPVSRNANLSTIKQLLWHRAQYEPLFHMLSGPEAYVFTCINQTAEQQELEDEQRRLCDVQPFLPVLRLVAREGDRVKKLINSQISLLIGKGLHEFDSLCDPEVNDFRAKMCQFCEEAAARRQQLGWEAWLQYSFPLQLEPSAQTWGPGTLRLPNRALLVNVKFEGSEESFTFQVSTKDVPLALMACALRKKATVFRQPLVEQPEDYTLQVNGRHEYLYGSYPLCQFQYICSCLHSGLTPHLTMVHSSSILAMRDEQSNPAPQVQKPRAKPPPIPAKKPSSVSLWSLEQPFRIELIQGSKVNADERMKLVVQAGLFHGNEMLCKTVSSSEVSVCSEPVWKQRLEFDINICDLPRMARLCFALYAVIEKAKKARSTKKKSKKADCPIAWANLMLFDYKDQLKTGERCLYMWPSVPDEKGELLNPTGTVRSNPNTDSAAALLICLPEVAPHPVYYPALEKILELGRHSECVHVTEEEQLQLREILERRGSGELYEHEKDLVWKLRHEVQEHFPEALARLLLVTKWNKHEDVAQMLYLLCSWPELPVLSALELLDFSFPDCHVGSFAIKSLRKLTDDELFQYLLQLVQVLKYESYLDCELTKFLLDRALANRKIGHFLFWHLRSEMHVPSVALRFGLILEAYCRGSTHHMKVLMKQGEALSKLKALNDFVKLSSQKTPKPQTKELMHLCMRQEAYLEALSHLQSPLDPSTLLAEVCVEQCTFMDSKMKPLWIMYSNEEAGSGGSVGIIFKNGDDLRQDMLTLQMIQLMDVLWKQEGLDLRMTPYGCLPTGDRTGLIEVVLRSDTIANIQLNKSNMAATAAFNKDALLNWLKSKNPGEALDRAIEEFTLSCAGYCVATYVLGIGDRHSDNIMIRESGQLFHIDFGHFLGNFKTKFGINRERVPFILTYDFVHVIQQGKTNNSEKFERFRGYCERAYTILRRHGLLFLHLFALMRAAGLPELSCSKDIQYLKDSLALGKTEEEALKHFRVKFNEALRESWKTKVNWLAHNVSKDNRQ
Chain of PI3Kδ (P27986 whole entry partner): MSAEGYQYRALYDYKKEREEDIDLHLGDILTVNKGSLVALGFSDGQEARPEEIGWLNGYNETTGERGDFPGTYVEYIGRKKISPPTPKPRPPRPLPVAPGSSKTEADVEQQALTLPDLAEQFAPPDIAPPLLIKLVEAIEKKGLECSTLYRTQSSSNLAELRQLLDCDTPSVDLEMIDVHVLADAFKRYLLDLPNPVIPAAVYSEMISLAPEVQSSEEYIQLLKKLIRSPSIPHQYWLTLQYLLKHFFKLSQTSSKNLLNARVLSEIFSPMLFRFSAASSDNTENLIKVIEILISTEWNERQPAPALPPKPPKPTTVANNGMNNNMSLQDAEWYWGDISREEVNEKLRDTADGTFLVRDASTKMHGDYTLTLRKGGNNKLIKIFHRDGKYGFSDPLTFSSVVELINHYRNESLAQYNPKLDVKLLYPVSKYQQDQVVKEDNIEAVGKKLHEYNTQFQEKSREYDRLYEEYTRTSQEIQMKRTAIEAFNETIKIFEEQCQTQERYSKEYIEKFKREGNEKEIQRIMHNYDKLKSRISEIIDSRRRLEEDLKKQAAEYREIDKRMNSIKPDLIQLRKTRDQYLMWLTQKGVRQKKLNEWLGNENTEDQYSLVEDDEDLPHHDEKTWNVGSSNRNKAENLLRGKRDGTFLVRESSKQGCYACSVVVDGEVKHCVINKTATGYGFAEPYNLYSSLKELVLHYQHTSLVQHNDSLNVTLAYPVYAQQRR
Chain of PI3Kβ (P42338 whole entry, the tested form may be a part, canonical isoform): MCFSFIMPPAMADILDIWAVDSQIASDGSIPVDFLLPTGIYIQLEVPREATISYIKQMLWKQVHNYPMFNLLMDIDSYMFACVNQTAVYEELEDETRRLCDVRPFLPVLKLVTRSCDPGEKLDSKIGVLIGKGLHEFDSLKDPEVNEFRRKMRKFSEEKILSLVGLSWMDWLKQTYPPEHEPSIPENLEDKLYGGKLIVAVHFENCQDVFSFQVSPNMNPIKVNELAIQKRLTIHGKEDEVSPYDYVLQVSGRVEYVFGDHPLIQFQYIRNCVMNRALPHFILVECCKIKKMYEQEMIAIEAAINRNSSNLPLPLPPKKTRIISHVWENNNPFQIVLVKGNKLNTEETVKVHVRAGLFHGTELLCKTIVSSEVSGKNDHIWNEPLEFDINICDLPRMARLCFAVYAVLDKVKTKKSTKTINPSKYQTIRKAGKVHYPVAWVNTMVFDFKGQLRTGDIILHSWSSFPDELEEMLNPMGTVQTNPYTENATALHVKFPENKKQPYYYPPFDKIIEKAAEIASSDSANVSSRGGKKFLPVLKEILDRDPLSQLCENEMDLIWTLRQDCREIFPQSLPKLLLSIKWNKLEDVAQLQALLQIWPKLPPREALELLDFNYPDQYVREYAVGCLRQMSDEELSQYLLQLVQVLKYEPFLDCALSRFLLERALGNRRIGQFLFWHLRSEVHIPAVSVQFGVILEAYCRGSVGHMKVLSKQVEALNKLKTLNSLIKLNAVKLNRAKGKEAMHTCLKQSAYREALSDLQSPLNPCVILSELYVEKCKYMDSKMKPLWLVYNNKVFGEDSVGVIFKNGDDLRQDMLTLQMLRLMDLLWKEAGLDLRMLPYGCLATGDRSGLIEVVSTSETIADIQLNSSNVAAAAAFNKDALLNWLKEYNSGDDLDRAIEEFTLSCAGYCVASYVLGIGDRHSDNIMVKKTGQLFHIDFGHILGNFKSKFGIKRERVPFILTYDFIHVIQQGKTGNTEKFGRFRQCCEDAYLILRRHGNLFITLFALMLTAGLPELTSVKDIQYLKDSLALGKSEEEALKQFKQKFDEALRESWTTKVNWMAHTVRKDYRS
Chain of PI3Kβ (P27986 whole entry partner, the tested form may be a part, canonical isoform): as the sequence (P27986 whole entry partner) above

What is called IC50 is the concentration at which inhibition is half-maximal. Read a high IC50 as weaker potency in that assay. On to `CC(CCN)n1c([C@H](C)Nc2ncnc(N)c2C#N)nc2cccc(Cl)c2c1=O` (stereo partly drawn) [Compound 24, 4-amino-6-(((1S)-1-(3-(4-aminobutan-2-yl)-5-chloro-4-oxo-3,4-dihydroquinazolin-2-yl)ethyl)amino)pyrimidine-5-carbonitrile], for which the IC50 at PI3Kβ was 51 nM; on PI3Kγ, at least 10000 nM; against PI3Kδ, 6 nM.

For `CC(CN)n1c([C@H](C)Nc2ncnc(N)c2C#N)nc2cccc(Cl)c2c1=O` (stereo partly drawn) [Compound 25, 4-amino-6-(((1S)-1-(3-(1-aminopropan-2-yl)-5-chloro-4-oxo-3,4-dihydroquinazolin-2-yl)ethyl)amino)pyrimidine-5-carbonitrile], the values for the IC50 against PI3Kβ, on PI3Kγ and on PI3Kδ were 1300 nM, at least 10000 nM and 100 nM, respectively.

With `C[C@H](Nc1ncnc(N)c1C#N)c1nc2cccc(Cl)c2c(=O)n1CCN` [Compound 26, (S)-4-amino-6-((1-(3-(2-aminoethyl)-5-chloro-4-oxo-3,4-dihydroquinazolin-2-yl)ethyl)amino)pyrimidine-5-carbonitrile], the IC50 against PI3Kβ was 740 nM; at PI3Kγ, at least 10000 nM; on PI3Kδ, 150 nM.

`CC(CN)Cn1c([C@H](C)Nc2ncnc(N)c2C#N)nc2cccc(Cl)c2c1=O` (stereo partly drawn) [Compound 27, 4-amino-6-(((1S)-1-(3-(3-amino-2-methylpropyl)-5-chloro-4-oxo-3,4-dihydroquinazolin-2-yl)ethyl)amino)pyrimidine-5-carbonitrile]: the IC50 against PI3Kβ is 200 nM; at PI3Kγ it was at least 10000 nM; against PI3Kδ, 7 nM.

As to `C[C@H](Nc1ncnc(N)c1C#N)c1nc2cccc(Cl)c2c(=O)n1CCCCN` [Compound 28, (S)-4-amino-6-((1-(3-(4-aminobutyl)-5-chloro-4-oxo-3,4-dihydroquinazolin-2-yl)ethyl)amino)pyrimidine-5-carbonitrile], the IC50 at PI3Kβ was 100 nM; at PI3Kγ, at least 10000 nM; against PI3Kδ, 3 nM.

In the case of `Cc1cccc2nc([C@H](C)Nc3ncnc(N)c3C#N)n(CCCN)c(=O)c12` [Compound 29, (S)-4-amino-6-((1-(3-(3-aminopropyl)-5-methyl-4-oxo-3,4-dihydroquinazolin-2-yl)ethyl)amino)pyrimidine-5-carbonitrile], the half-maximal inhibitory concentration (IC50) at PI3Kβ was 47 nM; against PI3Kγ it was at least 10000 nM; at PI3Kδ it was 7 nM.

`C[C@H](Nc1ncnc(N)c1Cl)c1nc2cccc(Cl)c2c(=O)n1CCCN` [Compound 30, (S)-2-(1-((6-amino-5-chloropyrimidin-4-yl)amino)ethyl)-3-(3-aminopropyl)-5-chloroquinazolin-4(3H)-one]: the IC50 at PI3Kβ was 110 nM; on PI3Kγ it was at least 10000 nM; on PI3Kδ it was 11 nM.

Consider `CNCCCn1c([C@H](C)Nc2ncnc(N)c2C#N)nc2cccc(Cl)c2c1=O` [Compound 31, (S)-4-amino-6-((1-(5-chloro-3-(3-(methylamino)propyl)-4-oxo-3,4-dihydroquinazolin-2-yl)ethyl)amino)pyrimidine-5-carbonitrile], for which the half-inhibitory concentration (IC50) at PI3Kβ is 47 nM; on PI3Kγ, at least 10000 nM; at PI3Kδ, 6 nM.

In the case of `C[C@H](NC(=O)c1c(N)nn2cccnc12)c1nc2cccc(Cl)c2c(=O)n1CCCN` [Compound 32, (S)-2-amino-N-(1-(3-(3-aminopropyl)-5-chloro-4-oxo-3,4-dihydroquinazolin-2-yl)ethyl)pyrazolo[1,5-a]pyrimidine-3-carboxamide], the half-maximal inhibitory concentration (IC50) on PI3Kβ came out at 44 nM; against PI3Kγ, 3200 nM; on PI3Kδ, 92 nM.

Regarding `CC(C)C[C@H](Nc1ncnc(N)c1C#N)c1nc2cccc(Cl)c2c(=O)n1CCCN` [Compound 33, (S)-4-amino-6-((1-(3-(3-aminopropyl)-5-chloro-4-oxo-3,4-dihydroquinazolin-2-yl)-3-methylbutyl)amino)pyrimidine-5-carbonitrile], the IC50 against PI3Kβ was 2100 nM; on PI3Kγ, at least 10000 nM; on PI3Kδ it was 210 nM.

Consider `CC[C@H](Nc1ncnc(N)c1C#N)c1nc2cccc(Cl)c2c(=O)n1CCCN` [Compound 34, (S)-4-amino-6-((1-(3-(3-aminopropyl)-5-chloro-4-oxo-3,4-dihydroquinazolin-2-yl)propyl)amino)pyrimidine-5-carbonitrile], for which the half-maximal inhibitory concentration (IC50) is 250 nM on PI3Kβ, at least 10000 nM on PI3Kγ and 79 nM on PI3Kδ.

In the case of `NCCCn1c([C@@H](Nc2ncnn3ccnc23)C2CC2)nc2cccc(Cl)c2c1=O` [Compound 35, (S)-3-(3-aminopropyl)-5-chloro-2-(cyclopropyl(imidazo[2,1-][1,2,4]triazin-4-ylamino)methyl)quinazolin-4(3H)-one], the 50% inhibitory concentration (IC50) on PI3Kβ is 110 nM; on PI3Kγ, at least 10000 nM; against PI3Kδ it was 21 nM.

As for `CC[C@H](Nc1nc(N)nc(N)c1C#N)c1nc2cccc(Cl)c2c(=O)n1CCCN` [Compound 36, (S)-2,4-diamino-6-((1-(3-(3-aminopropyl)-5-chloro-4-oxo-3,4-dihydroquinazolin-2-yl)propyl)amino)pyrimidine-5-carbonitrile], the half-inhibitory concentration (IC50) against PI3Kβ is 71 nM; on PI3Kγ it was 8200 nM; on PI3Kδ it was 27 nM.

In the case of `NCCCn1c([C@@H](Nc2ncnc3cccnc23)C2CC2)nc2cccc(Cl)c2c1=O` [Compound 37, (S)-3-(3-aminopropyl)-5-chloro-2-(cyclopropyl(pyrido[3,2-d]pyrimidin-4-ylamino)methyl)quinazolin-4(3H)-one], the half-maximal inhibitory concentration (IC50) stood at 57 nM at PI3Kβ, 4800 nM against PI3Kγ and 16 nM at PI3Kδ.

Regarding `NCCCn1c([C@@H](Nc2nc(N)nc(N)c2Cl)C2CC2)nc2cccc(Cl)c2c1=O` [Compound 38, (S)-3-(3-aminopropyl)-5-chloro-2-(cyclopropyl((2,6-diamino-5-chloropyrimidin-4-yl)amino)methyl)quinazolin-4(3H)-one], the IC50 at PI3Kβ was 44 nM; at PI3Kγ, at least 10000 nM; at PI3Kδ, 12 nM.

For `CNCCCn1c([C@H](C)Nc2nc(N)nc(N)c2C#N)nc2cccc(Cl)c2c1=O` [Compound 39, (S)-2,4-diamino-6-((1-(5-chloro-3-(3-(methylamino)propyl)-4-oxo-3,4-dihydroquinazolin-2-yl)ethyl)amino)pyrimidine-5-carbonitrile], the figures for the IC50 at PI3Kβ, against PI3Kγ and at PI3Kδ were 25 nM, 2400 nM and 3 nM, respectively.

Take `N#Cc1c(N)ncnc1N[C@H](c1nc2cccc(Cl)c2c(=O)n1CCCN)C1CC1` [Compound 40, (S)-4-amino-6-(((3-(3-aminopropyl)-5-chloro-4-oxo-3,4-dihydroquinazolin-2-yl)(cyclopropyl)methyl)amino)pyrimidine-5-carbonitrile]: the IC50 against PI3Kβ is 21 nM; at PI3Kγ, at least 10000 nM; on PI3Kδ, 9 nM.

Regarding `CNCCCn1c([C@H](C)Nc2nc(N)nc(C)c2C#N)nc2cccc(Cl)c2c1=O` [Compound 41, (S)-2-amino-4-((1-(5-chloro-3-(3-(methylamino)propyl)-4-oxo-3,4-dihydroquinazolin-2-yl)ethyl)amino)-6-methylpyrimidine-5-carbonitrile], the IC50 against PI3Kβ worked out at 15 nM; on PI3Kγ, 1800 nM; against PI3Kδ, 3 nM.
